Measured values taken from patent publication US12433873B2, “Microtubule polymerization inhibitor prodrugs and methods of using the same” (University of Maryland, Baltimore, priority 2017, dated 2025).
“Also recorded” adds a separate entry of the source.

How the values were obtained:
mdx mice [1] = experiment: In vivo nerve evoked torque and eccentric injury of the gastrocnemius muscle in mdx mice; design: species or system mouse; conditions: 20 eccentric contractions of gastrocnemius, FIG. 2D
Experimental: FIGS. 2A-2D illustrate that targeting microtubule density in vivo is solely sufficient to decrease contraction-induced injury in mdx mice. Nerve evoked torque and eccentric injury of the gastrocnemius muscle in vivo (FIG. 2A). […] Normalized torque records of the initial (time=0; wild-type in black, mdx in red) and 20th (grey) eccentric contractions (FIG. 2C).
Skeletal Muscle Function. Evan's blue dye (EBD) (5 μg/μl solution in PBS; 5 μl/g body weight) can be injected I.P. 24 hrs before the assay. The in vivo assessment of the nerve evoked isometric force vs. stimulation frequency relationship of the gastrocnemius can be determined as described in the art. The maximal isometric force (post hoc normalized to estimated cross sectional area) can be taken as the measure of functional quality of the muscle. […]
Susceptibility to contraction injury (skeletal muscle) can be assessed across each treatment cohort. As in FIG. 2, the % force deficit after 20 eccentric contractions of the gastrocnemius muscle can be determined. […] Thirty minutes after the last eccentric contraction, blood (orbital sinus) can be collected and analyzed for creatine kinase (CK) activity. […] After the trials, the muscle tissue can be processed and % EBD positive fibers can be used to quantitate the extent of muscle damage at rest (uninjured leg) or with injury.

OCY-293 cells = experiment: In vitro microtubule destabilization in OCY-293 cells stably expressing GFP-tubulin; assay type: cell-based; conditions: 10-120 minutes, 0.3-100 μM
Experimental: Cell treatment: OCY-293 cells stably expressing GFP-tubulin were cultured in 96-well plates at 37° C. in modified DMEM. […] Control cells were treated with vehicle. DAPI was added to each well to identify the nuclei. At each time point, cells were fixed with 4% paraformaldehyde and stored at 4° C. in the dark until imaging.
Imaging and Analysis: Cells were imaged to assess microtubule structure using fluorescence microscopy (Nikon TIe) with 5 images taken in different locations of each well. The images were digitized in two channels (GFP to visualize tubulin, and therefore microtubules; and DAPI to visualize nuclei). The microtubule area was traced, and nuclei were counted using predictive software (Nikon Elements v4.51) via unbiased automated measurements of each image in each of the wells. The microtubule area was normalized to the number of nuclei.

mdx muscle fibers = experiment: X-ROS, Ca2+ signaling and microtubule density in mdx muscle fibers in vitro; assay type: cell-based, mouse
Description: FIGS. 1A-1E illustrate that microtubules underlie dysfunction in DMD. Aggregate DFF signals from WT (Black; n=5) and mdx (Red; n=6) muscle fibers (FIG. 1A). Mean values from A show a significant increase in X-ROS in the mdx (*p<0.05) that is blunted by colchicine (FIG. 1B). X-ROS leads to Ca^2+ influx that is blocked by microtubule depolymerization (FIG. 1C). Microtubule density is elevated in mdx fibers and reduced by colchicine (FIGS. 1D and 1E).
In murine DMD (mdx), it has been discovered that disease-driven alterations in microtubule network density and properties underscore the deleterious excess of Nox2-ROS and Ca^2+ signals in skeletal muscle and heart. Using colchicine, a drug that promotes microtubule depolymerization, it has been shown that reducing microtubule density normalized the dysregulated ROS and Ca^2+ signaling in DMD muscle fibers in vitro (see FIG. 1). […] The significance of these pre-clinical discoveries was bolstered by transcriptional evidence (RNASeq) for microtubule excess in muscle biopsy samples from affected DMD patients.

mdx mice [2] = experiment: Isoproterenol cardiac stress test in mdx mice; assay type: in vivo, mouse
Experimental: FIGS. 5A-5D illustrate that colchicine blunts isoproterenol-induced cardiac damage in mdx and prevents cardiac arrhythmias. Wild-type and mdx mice were injected with Evan's blue dye one day prior then underwent an isoproterenol cardiac stress test and heart rate measured. […] Conversely, mdx mice cannot upregulate their heart rate to the same extent (˜2 fold) and only do so for a short period (30-45 min) before suffering severe arrhythmias and cardiac death, with only 10% survival.
Isoproterenol Cardiac Stress and Sarcolemmal Damage of the Heart. Catecholaminergic work-load stress induces atrial fibrillation (AF), ventricular tachycardia (VT) and sudden cardiac death (SCD) in mdx mice and this can be prevented by colchicine treatment (FIG. 5). To assess if colchicine pro-drugs prevent AF, VT and SCD, Evan's blue dye (EBD) (5 μg/μl solution in PBS; 5 μl/g body weight) can be injected I.P. 24 hrs before the assay. Mice are first anesthetized with sodium pentobarbital, and the heart rate monitored by a single-lead electrocardiogram. Isoproterenol is then used to pharmacologically increase the level of mechanical stress imposed on the heart. The mice are killed 3 hours after the administration of isoproterenol and the heart mounted in cryomatrix, sectioned and assessed for sarcolemmal damage.

[3] = cited from earlier work

COc1cc(C(C)=O)ccc1O [apocynin]
force loss / contraction injury after eccentric contractions (mdx mice [1]): significant protection from force loss

COc1cc2c(c(OC)c1OC)-c1ccc(OC)c(=O)cc1[C@@H](NC(C)=O)CC2 [colchicine]
microtubule depolymerization (microtubule area normalized to number of nuclei) (OCY-293 cells): rapid depolymerization at low concentrations | force loss / contraction injury after eccentric contractions (mdx mice [1]): reduced contraction injury; also recorded: significant protection from force loss | Microtubule density in mdx fibers (mdx muscle fibers; FIGS. 1D and 1E): reduced | dysregulated ROS and Ca2+ signaling in DMD muscle fibers (mdx muscle fibers; in vitro, FIG. 1): normalized | X-ROS (DFF signal) increase in mdx muscle fibers (mdx muscle fibers; mdx muscle fibers, FIG. 1B): blunted | cardiac death and arrhythmia (mdx mice [2]; mdx mice after isoproterenol cardiac stress): prevents cardiac death and arrhythmia | survival (mdx mice [2]; mdx mice after isoproterenol cardiac stress (untreated mdx 10% survival)): 90% | cardiac integrity (histological analysis, Evan's blue) (mdx mice [2]; mdx mice, FIGS. 5C and 5D): significant preservations of cardiac integrity | increase in cardiac workload (mdx mice [2]; mdx mice, compared to untreated animals): supports the increase in cardiac workload significantly | therapeutic window: lethal dose ([3]; in vivo): 16-30 × therapeutic dose | absorption, median ([3]; oral): 45% | half-life ([3]; orally dosed): 1 to 2.7 h | time of peak plasma concentration ([3]; orally dosed): 30 to 90 min

COc1cc2c(c(OC)c1OC)-c1ccc(OC)c(=O)cc1[C@@H](N(C)C(=O)OC(C)OC(C)=O)CC2 (stereo partly shown) [compound 7]
microtubule depolymerization (microtubule area normalized to number of nuclei) (OCY-293 cells): delayed and reduced depolymerization at all concentrations

CCCCCCCCCCCCCCCC(=O)OCOC(=O)N(C)[C@H]1CCc2cc(OC)c(OC)c(OC)c2-c2ccc(OC)c(=O)cc21 [compound 10]
microtubule depolymerization (microtubule area normalized to number of nuclei) (OCY-293 cells): dampened depolymerization at higher concentrations only
